Consider 1 molecule from US20240197890A1, “FLAVONE DERIVATIVES AND USES IN TARGETING CK2-MEDIATED DISEASES AND CONDITIONS” (Salk Institute for Biological Studies, priority 2020, published 2024).

The target in one assay is T1, CK2α1 (Homo sapiens, UniProt P68400).
T1 construct: endogenous in cells
The assay is described as follows: Thermal shift assay with Western blotting in astrocyte extracts. The conditions noted are these: extracts of iPSC-derived astrocytes. Type of assay: binding. On the procedure:
Thermal shift assay and TPP. […] Protein concentration was determined by BCA assay (Bio-Rad), and lysates were diluted to 2 mg/mL. […] Reactions were incubated at rt for 30 min, after which each treated extract was divided into 10 aliquots of 95 μl in PCR strip tubes and stored on ice. […] A small aliquot (5 μl) of supernatant was saved for Western blotting, and the rest was snap frozen at −80 C and submitted for LC-MS/MS.
(In general: In western blotting, separated proteins are transferred to a membrane and probed.)

A further assay deals with IκB S32. The assay is described as follows: Immunoblot of IκB S32 in IL1-β-stimulated astrocytes. Type of assay: cell-based, human. The conditions noted are these: after 5 hours. On the procedure: Western blotting. […] Cells were dissociated with 1:1 Accutase:papain for 3 min at rt, pelleted for 5 min at 800 g, and washed twice with cold DPBS. Pellets were lysed with RIPA buffer (Sigma R0278) supplemented with Halt protease inhibitor cocktail (Thermo Fisher 78445) and clarified by centrifugation (16,000 g, 10 min, 4° C.). Protein concentration was determined by BCA assay (Thermo Fisher). Proteins were denatured in 1×LDS Buffer and 2.5% beta-mercaptoethanol (X) for 10 min at 70° C., separated on Bolt 4-12% Bis-Tris Plus polyacrylamide gels (Thermo Fisher), transferred to PVDF membranes using the iBlot 2 Dry Blotting System, and blocked with 0.1% casein-PBS (Bio-Rad) for 1 h at room temperature. The blots were incubated with primary antibodies overnight at 4° C. in PBS containing 0.1% casein and 0.2% Tween-20. Antibodies used: rabbit anti-CK2a1 (Bethyl #, 1:5000), rabbit anti-CK2a2 (Bethyl #, 1:5000), mouse anti-GAPDH (Fitzgerald #10-1501, 1:20,000), mouse anti-NF-KB (CST #6956S, 1:1000), pNF-KB S529 (TFS #14-9864-82, 1:100), LC3B (CST 2775, 1:1000), ACO2 (CST 6922, 1:1000), rabbit HMGB1 (Novus #NB1002322, 1:1000), mouse anti-IκBα (CST #4814S, 1:1000), mouse anti-IκBa pS32 (SC #8404, 1:500), HA-tag (Bethyl #A190-108A, 1:20000). […] The blots were imaged using the Odyssey CLx imaging system and blots were analyzed on the ImageStudio software (LI-COR). […]

The subject of the next assay is HMGB1. Briefly: HMGB1 secretion in AD patient iPSC-derived astrocytes (Western blot). It counts as cell-based, human. On the procedure: Western blotting. For drug treatment assays, cells were treated with vehicle (DMSO) or 20 μM compound and stimulated with IL1-B 10 ng/mL for 1 h, 6 h, or 24 h. Cells were dissociated with 1:1 Accutase:papain for 3 min at rt, pelleted for 5 min at 800 g, and washed twice with cold DPBS. Pellets were lysed with RIPA buffer (Sigma R0278) supplemented with Halt protease inhibitor cocktail (Thermo Fisher 78445) and clarified by centrifugation (16,000 g, 10 min, 4° C.). Protein concentration was determined by BCA assay (Thermo Fisher). Proteins were denatured in 1×LDS Buffer and 2.5% beta-mercaptoethanol (X) for 10 min at 70° C., separated on Bolt 4-12% Bis-Tris Plus polyacrylamide gels (Thermo Fisher), transferred to PVDF membranes using the iBlot 2 Dry Blotting System, and blocked with 0.1% casein-PBS (Bio-Rad) for 1 h at room temperature. The blots were incubated with primary antibodies overnight at 4° C. in PBS containing 0.1% casein and 0.2% Tween-20. […] The blots were imaged using the Odyssey CLx imaging system and blots were analyzed on the ImageStudio software (LI-COR).
To further investigate this CK2 dysregulation in an in vitro AD model, iPSC-derived astrocytes were generated from a cohort of 6 AD patients and 5 age-matched controls. […] HMGB1 was detected in media from AD astrocytes in the absence of inflammatory stimuli (FIG. 12C). […]

T1 sequence (P68400 whole entry): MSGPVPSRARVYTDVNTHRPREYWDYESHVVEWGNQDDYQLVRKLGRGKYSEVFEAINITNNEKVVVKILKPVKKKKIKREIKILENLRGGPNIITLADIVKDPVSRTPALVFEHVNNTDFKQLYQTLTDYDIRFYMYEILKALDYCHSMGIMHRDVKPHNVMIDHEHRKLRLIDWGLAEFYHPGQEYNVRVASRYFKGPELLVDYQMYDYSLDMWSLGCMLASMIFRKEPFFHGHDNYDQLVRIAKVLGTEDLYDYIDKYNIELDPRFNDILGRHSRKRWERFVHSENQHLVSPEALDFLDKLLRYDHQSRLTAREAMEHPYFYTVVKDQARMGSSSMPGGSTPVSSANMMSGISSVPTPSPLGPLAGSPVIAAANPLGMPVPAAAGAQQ

`COc1cc(-c2cc(=O)c3c(O)cc(O)cc3o2)ccc1O` [CHR, chrysoeriol]: the “binding / thermal stabilization of CK2a” value at CK2α1 is “dose-dependently stabilized”; at CK2α1 (listed as chrysoeriol) it was “bind CK2a”. Moreover, the “IκB S32 levels” value in the assay with IκB S32 is listed as “decreased”. In the assay on HMGB1, the HMGB1 secretion result is recorded as “reduced”.
